Test results reported in PMC8341744 (RSC Chemical Biology, 2020).
Read-outs that look alike come from different tables or passages of the source.

How the values were obtained:
[1] = biological target: T1, Mcl-1 (Mus musculus, UniProt P97287, F227L/F267C/G222D/K236S/Q303E/S261T/T274S/V232I/V262I); experiment: FITC-NoxaB Mcl-1 competitive binding fluorescence anisotropy
[2] = biological target: T1, Mcl-1; conditions: Mcl-1/Noxa; parent peptide; cited from earlier work

T1 sequence (P97287 152-308 G222D/F227L/V232I/K236S/S261T/V262I/F267C/T274S/Q303E): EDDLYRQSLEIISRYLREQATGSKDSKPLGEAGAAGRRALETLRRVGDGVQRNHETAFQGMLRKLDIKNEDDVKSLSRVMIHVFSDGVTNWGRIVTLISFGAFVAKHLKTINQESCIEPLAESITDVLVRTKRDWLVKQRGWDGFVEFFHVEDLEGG

Compound	IC50 [1]	IC50 [2]
CC(=O)O[C@@H]1[C@@H](OC(C)=O)[C@H](OC(C)=O)CO[C@H]1n1cc(-c2ccc(Cl)cc2)nn1 [compound 7, (2R,3R,4S,5R)-2-(4-(4-chlorophenyl)-1H-1,2,3-triazol-1-yl)tetrahydro-2H-pyran-3,4,5-triyl triacetate]	4.39 µM	
CC(=O)O[C@@H]1[C@@H](OC(C)=O)[C@H](OC(C)=O)CO[C@H]1n1cc(-c2ccc(Br)cc2)nn1 [compound 8, (2R,3R,4S,5R)-2-(4-(4-bromophenyl)-1H-1,2,3-triazol-1-yl)tetrahydro-2H-pyran-3,4,5-triyl triacetate]	7.03 µM	
AAQLRRIGDKVNLRQKLLN [NoxaB-(75–93)-C75A peptide]		0.65 µM
